Reference: EP0075141A1, “1,2,5-Oxadiazole-3,4-dicarboxylic-acid derivatives, process for their production, their use and pharmaceutical preparations containing them” (CASSELLA Aktiengesellschaft, priority 1981, dated 1983)

Tested on: Bastardhunden
Test: Haemodynamic study of antianginal and antihypertensive action in anaesthetised mongrel dogs
Format: in vivo
Details: dogs under pentobarbital or urethane-chloralose anaesthesia
Procedure: Die Untersuchungen über die antianginöse und antihypertensive Wirkung der Verbindungen der Formel I wurden an Bastardhunden beiderlei Geschlechts in Pentobarbital-Narkose (30 bis 40 mg/ kg i.v.) oder in Urethan-Chloralose-Narkose (3 ml/kg Urethan-Chloralose-Gemisch i.v. = 20 mg/kg Chloralose und 250 mg/kg Urethan) durchgeführt. Die Beatmung der Tiere erfolgte mit einem Bird-Mark-7-Respirator. Der endexpiratorische Kohlensäuregehalt (gemessen mit einem Ultrarotabsorptionsschreiber) betrug zwischen 4,5 und 5 Vol.%. Während des gesamten Versuchs erhielten die Tiere mit Pentobarbital-Narkose eine Dauerinfusion von Pentobarbital i.v. = 4 mg(in 6 ml)/kg/h, um eine konstante Narkosetiefe zu gewährleisten; die Tiere mit Urethan-Chloralose-Narkose erhielten keine Dauerinfusion. Die Infusion wurde durch die Vena cephalica gegeben. Nach der Präparation des Versuchstieres wurde ca. 1 Stunde gewartet, bis sich alle haemodynamischen Parameter eingestellt hatten (steady state). Danach wurde mit dem eigentlichen Versuch begonnen.
Zur Bestimmung des mittleren Blutdrucks (=BDm) wurde der systolische und diastolische Blutdruck peripher in der Arteria femora1is über einen Statham-Druckaufnehmer gemessen. Ein über die Arteria carotis in den linken Ventrikel geschobener Millartip-Katheter lieferte das Signal für den linksventrikulären enddiastolischen Druck (=LVEDP) und die Herzfrequenz (=HF). Mit einem zweiten, über die Venajugularis eingeschobenen Tip-Katheter wurde der mittlere Blutdruck (=PAP) in der Arteria pulmonalis erfaßt.

SMILES	BDm Δ (mittlerer peripherer Blutdruck) (Dosis 1 mg/kg) [mmHg]	HF Δ (Herzfrequenz) (Dosis 1 mg/kg)	LVEDP Δ (linksventrikulärer enddiastolischer Druck) (Dosis 1 mg/kg)	PAP Δ (mittlerer Pulmonalarteriendruck) (Dosis 1 mg/kg)	also measured
CCCNC(=O)c1nonc1C(=O)NCCC [CH3CH2CH2NH- / CH3CH2CH2NH-, 1,2,5-Oxadiazol-3,4-bis-(carbonsäurepropylamid)]	-35	0 b/min	-0,5 mmHg	+1,1 mmHg	–
CNC(=O)c1nonc1C(=O)NC [H2CNH- / H3CNH-, l,2,5-0xadiazol-3,4-bis-(carbonsäuremethylamid)]	–	–	–	–	BDm Δ (mittlerer peripherer Blutdruck) (Dosis 0,5 mg/kg): -35 mmHg; HF Δ (Herzfrequenz) (Dosis 0,5 mg/kg): +20 b/min; LVEDP Δ (linksventrikulärer enddiastolischer Druck) (Dosis 0,5 mg/kg): -3,5 mmHg; PAP Δ (mittlerer Pulmonalarteriendruck) (Dosis 0,5 mg/kg): -3,0 mmHg
CCOC(=O)c1nonc1C(=O)NC(C)C [H5C2O- / [drawing] (r5)]	–	–	–	–	BDm Δ (mittlerer peripherer Blutdruck) (Dosis 3 mg/kg): -35 mmHg; LVEDP Δ (linksventrikulärer enddiastolischer Druck) (Dosis 3 mg/kg): -2,5 mmHg; PAP Δ (mittlerer Pulmonalarteriendruck) (Dosis 3 mg/kg): -2,0 mmHg
CCOC(=O)c1nonc1C(=O)NCCCN1CCN(c2ccccc2OC)CC1 [H5C2O- / [drawing] (r7)]	-30	–	-2,5 mmHg	-1 mmHg	–
O=C(NCCO)c1nonc1C(=O)NCCO [HOCH2CH2NH- / HOCH2CH2NH-, 1,2,5-Oxadiazol-3,4-bis-(carbonsäure-ethanolamid)]	-30	0 b/min	-1 mmHg	-2,0 mmHg	–
O=C(NCc1cccnc1)c1nonc1C(=O)NCc1cccnc1 [[drawing] / [drawing] (r2)]	–	–	–	–	BDm Δ (mittlerer peripherer Blutdruck) (Dosis 3 mg/kg): -45 mmHg; LVEDP Δ (linksventrikulärer enddiastolischer Druck) (Dosis 3 mg/kg): -8,5 mmHg; PAP Δ (mittlerer Pulmonalarteriendruck) (Dosis 3 mg/kg): -2,4 mmHg
O=C(NC1CCCCC1)c1nonc1C(=O)NC1CCCCC1 [[drawing] / [drawing] (r3)]	-55	+15 b/min	-10 mmHg	-2,7 mmHg	–
